Source: ChEMBL document CHEMBL5331114, “Discovery of Pyxinol Amide Derivatives Bearing Amino Acid Residues as Nonsubstrate Allosteric Inhibitors of P-Glycoprotein-Mediated Multidrug Resistance” (J Med Chem, 2023)
Calls of active or inactive are those of the source. The calls are words filed in the database; no cut-off is given here.

Legend:
[1] = target: T1, ATP-dependent translocase ABCB1 (Homo sapiens, UniProt P08183); experiment: Negative allosteric modulator activity at P-glycoprotein mediated Rhodamine-123 efflux in human KBV cells assessed as increase in intracellular Rhodamine-123 accumulation incubated for 2 hrs by flow cytometry analysis; assay type: cell-based
[2] = Induction of Ptx-mediated cell cycle arrest in human KBV cells assessed as accumulation of cells at Sub-G1 phase at 5 uM incubated for 24 hrs in presence of paclitaxel by flow cytometry analysis (reference value: 1.21 +/- 0.3%); assay type: functional
KBV = experiment: Chemo-sensitizing activity against Ptx-resistance human KBV cells xenografted in BALB/c mouse assessed as inhibition of tumor growth at 20 mg/kg,ip measured after 23 days; assay type: functional, organism-based; conditions: time 23.0 day
[3] = Induction of Ptx-mediated cell cycle arrest in human KBV cells assessed as accumulation of cells at G2-M phase at 10 uM incubated for 24 hrs in presence of paclitaxel by flow cytometry analysis (Rvb =25.34 +/- 0.92%); assay type: functional
[4] = Induction of cell cycle arrest in human KBV cells assessed as accumulation of cells at Sub-G1 phase at 5 uM incubated for 24 hrs by flow cytometry analysis (reference value: 1.24 +/- 0.14%); assay type: functional
[5] = Induction of Ptx-mediated cell cycle arrest in human KBV cells assessed as accumulation of cells at Sub-G1 phase at 10 uM incubated for 24 hrs in presence of paclitaxel by flow cytometry analysis (reference value: 1.21 +/- 0.3%); assay type: functional
[6] = Induction of cell cycle arrest in human KBV cells assessed as accumulation of cells at G2-M phase at 5 uM incubated for 24 hrs by flow cytometry analysis (reference value: 24.94 +/- 0.21%); assay type: functional
P-gp (ABCB1) ATPase [7] = target: T2, P-gp (ABCB1) ATPase (Homo sapiens, UniProt P08183); experiment: Negative allosteric modulator activity at human P-gp ATP synthase hydrolytic activity assessed as inhibition of Vrp-stimulated Pgp-ATPase activity incubated for 60 mins in presence of ATP by Glo-luminescence based microplate reader assay relative to DMSO; conditions: probe Vrp (stimulator of the ATPase activity)
[8] = Induction of cell cycle arrest in human KBV cells assessed as accumulation of cells at G1-G0 phase at 10 uM incubated for 24 hrs by flow cytometry analysis (reference value: 62.34 +/- 0.24%); assay type: functional
[9] = Induction of Ptx-mediated cell cycle arrest in human KBV cells assessed as accumulation of cells at S phase at 5 uM incubated for 24 hrs in presence of paclitaxel by flow cytometry analysis (Rvb =16.63 +/- 0.4%); assay type: functional
[10] = target: T1, ATP-dependent translocase ABCB1; experiment: Negative allosteric modulator activity at P-glycoprotein in human KBV cells assessed as effect on P-gp protein localization at 10 uM incubated for 48 hrs by immunofluorescence analysis; assay type: cell-based
[11] = target: Multidrug resistance-associated protein 1 (Homo sapiens, UniProt P33527); experiment: Binding affinity to ABCC1 in human KBV cells assessed as stabilization of ABCC1 at 50 uM incubated for 26 hrs by western blot based cellular thermal shift assay; assay type: cell-based
[12] = Reversal of multidrug resistance in human KBV Cells assessed as increase in PTX-induced cytotoxicity by measuring cell survival rate at 5 uM incubated for 72 hrs in presence of paclitaxel by MTT assay relative to control; assay type: functional; conditions: read-out: Survival
[13] = Cytotoxicity against human KBV Cells assessed as cell survival rate at 10 uM incubated for 72 hrs by MTT assay; assay type: functional; conditions: read-out: Survival
[14] = Induction of Ptx-mediated cell cycle arrest in human KBV cells assessed as accumulation of cells at S phase at 10 uM incubated for 24 hrs in presence of paclitaxel by flow cytometry analysis (Rvb =16.63 +/- 0.4%); assay type: functional
[15] = Reversal of multidrug resistance in human KBV Cells assessed as increase in PTX-induced cytotoxicity by measuring cell survival rate at 10 uM incubated for 72 hrs in presence of paclitaxel by MTT assay relative to control; assay type: functional; conditions: read-out: Survival
[16] = target: T1, ATP-dependent translocase ABCB1; experiment: Negative allosteric modulator activity at P-glycoprotein in human KBV cells assessed as effect on P-gp protein expression level at 10 uM incubated for 72 hrs by Western blotting analysis; assay type: cell-based
[17] = target: T1, ATP-dependent translocase ABCB1; experiment: Negative allosteric modulator activity at human P-gp ATP synthase hydrolytic activity assessed as inhibition of basal Pgp-ATPase activity at 1 mM incubated for 60 mins in presence of ATP by Glo-luminescence based microplate reader assay; conditions: 1 h, 1000 µM
[18] = Induction of cell cycle arrest in human KBV cells assessed as accumulation of cells at G2-M phase at 10 uM incubated for 24 hrs by flow cytometry analysis (reference value: 24.94 +/- 0.21%); assay type: functional
[19] = Toxicity against BALB/c mouse xenografted with Ptx-resistance human KBV cells at 20 mg/kg,ip measured after 23 days; assay type: organism-based; conditions: in vivo, 552 h, time 23 day
[20] = Induction of cell cycle arrest in human KBV cells assessed as accumulation of cells at S phase at 5 uM incubated for 24 hrs by flow cytometry analysis (reference value: 12.42 +/- 0.41%); assay type: functional
P-gp (ABCB1) ATPase [21] = target: T2, P-gp (ABCB1) ATPase; experiment: Negative allosteric modulator activity at human P-gp ATP synthase hydrolytic activity assessed as inhibition of basal Pgp-ATPase activity at 25 uM incubated for 60 mins in presence of ATP by Glo-luminescence based microplate reader assay relative to DMSO
[22] = Drug accumulation in human KBV cells at 10 uM incubated for 4 hrs by LC-MS/MS analysis; assay type: ADME, cell-based
[23] = target: T1, ATP-dependent translocase ABCB1; experiment: Negative allosteric modulator activity at P-glycoprotein mediated Rhodamine-123 efflux in human KBV cells assessed as increase in intracellular Rhodamine-123 accumulation at 10 uM incubated for 2 hrs in presence of Ptx-C by flow cytometry analysis; assay type: cell-based
[24] = Chemo-sensitizing activity against Ptx-resistance human KBV cells xenografted in BALB/c mouse assessed as inhibition of tumor growth at 20 mg/kg,ip pre-treated with paclitaxel measured after 23 days; assay type: functional; conditions: 552 h, time 23 day
[25] = Drug accumulation in human KB cells at 10 uM incubated for 4 hrs by LC-MS/MS analysis; assay type: ADME, cell-based
[26] = Induction of Ptx-mediated cell cycle arrest in human KBV cells assessed as accumulation of cells at G1-G0 phase at 10 uM incubated for 24 hrs in presence of paclitaxel by flow cytometry analysis (Rvb =57.76 +/- 0.78%); assay type: functional
[27] = target: T1, ATP-dependent translocase ABCB1; experiment: Binding affinity to P-glycoprotein in human KBV cells assessed as stabilization of P-glycoprotein at 50 uM incubated for 26 hrs by western blot based cellular thermal shift assay; assay type: cell-based
[28] = Reversal of multidrug resistance in human KBV Cells assessed as reversal fold of paclitaxel IC50 at 10 uM incubated for 72 hrs in presence of paclitaxel by MTT assay; assay type: functional
P-gp (ABCB1) ATPase [29] = target: T2, P-gp (ABCB1) ATPase; experiment: Negative allosteric modulator activity at human P-gp ATP synthase hydrolytic activity assessed as inhibition of basal Pgp-ATPase activity incubated for 60 mins in presence of ATP by Glo-luminescence based microplate reader assay relative to DMSO
[30] = target: T1, ATP-dependent translocase ABCB1; experiment: Negative allosteric modulator activity at P-glycoprotein mediated Rhodamine-123 efflux in human KBV cells assessed as increase in intracellular Rhodamine-123 accumulation incubated for 2 hrs in presence of Ptx-C by flow cytometry analysis; assay type: cell-based

T1 sequence (P08183 whole entry): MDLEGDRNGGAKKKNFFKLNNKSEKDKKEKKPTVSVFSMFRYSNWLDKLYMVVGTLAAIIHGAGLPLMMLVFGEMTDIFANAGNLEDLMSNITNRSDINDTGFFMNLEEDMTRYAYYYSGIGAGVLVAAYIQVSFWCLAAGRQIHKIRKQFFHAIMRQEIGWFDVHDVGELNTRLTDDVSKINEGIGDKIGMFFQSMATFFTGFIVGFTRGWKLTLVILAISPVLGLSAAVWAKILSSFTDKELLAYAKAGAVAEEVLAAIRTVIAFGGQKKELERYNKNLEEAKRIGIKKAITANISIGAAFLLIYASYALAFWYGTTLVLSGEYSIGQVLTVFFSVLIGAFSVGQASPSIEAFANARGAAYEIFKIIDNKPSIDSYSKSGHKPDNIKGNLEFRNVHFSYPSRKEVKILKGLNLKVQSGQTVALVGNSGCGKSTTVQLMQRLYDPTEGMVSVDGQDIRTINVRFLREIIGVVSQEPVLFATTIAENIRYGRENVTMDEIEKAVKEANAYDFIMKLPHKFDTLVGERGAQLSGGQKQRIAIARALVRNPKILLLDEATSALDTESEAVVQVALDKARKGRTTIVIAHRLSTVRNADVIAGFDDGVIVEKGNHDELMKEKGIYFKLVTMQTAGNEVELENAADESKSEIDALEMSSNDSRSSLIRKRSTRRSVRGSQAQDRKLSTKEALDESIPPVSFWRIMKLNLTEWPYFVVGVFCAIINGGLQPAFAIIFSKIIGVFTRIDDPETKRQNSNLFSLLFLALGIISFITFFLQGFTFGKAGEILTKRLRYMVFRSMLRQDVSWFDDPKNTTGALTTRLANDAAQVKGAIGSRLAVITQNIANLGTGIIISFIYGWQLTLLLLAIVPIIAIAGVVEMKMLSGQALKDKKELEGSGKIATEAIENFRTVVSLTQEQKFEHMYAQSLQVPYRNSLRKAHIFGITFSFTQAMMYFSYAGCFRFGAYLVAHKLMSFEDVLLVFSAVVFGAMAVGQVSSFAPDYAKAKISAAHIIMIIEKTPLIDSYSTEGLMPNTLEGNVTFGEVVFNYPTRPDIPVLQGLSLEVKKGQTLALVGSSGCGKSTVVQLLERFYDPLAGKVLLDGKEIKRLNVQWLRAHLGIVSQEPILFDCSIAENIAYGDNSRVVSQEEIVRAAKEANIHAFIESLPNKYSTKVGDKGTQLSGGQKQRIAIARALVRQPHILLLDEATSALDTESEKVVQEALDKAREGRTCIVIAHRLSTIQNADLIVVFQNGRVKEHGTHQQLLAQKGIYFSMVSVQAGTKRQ
T2 sequence (P08183 whole entry): as above
Chain of Multidrug resistance-associated protein 1 (P33527 whole entry): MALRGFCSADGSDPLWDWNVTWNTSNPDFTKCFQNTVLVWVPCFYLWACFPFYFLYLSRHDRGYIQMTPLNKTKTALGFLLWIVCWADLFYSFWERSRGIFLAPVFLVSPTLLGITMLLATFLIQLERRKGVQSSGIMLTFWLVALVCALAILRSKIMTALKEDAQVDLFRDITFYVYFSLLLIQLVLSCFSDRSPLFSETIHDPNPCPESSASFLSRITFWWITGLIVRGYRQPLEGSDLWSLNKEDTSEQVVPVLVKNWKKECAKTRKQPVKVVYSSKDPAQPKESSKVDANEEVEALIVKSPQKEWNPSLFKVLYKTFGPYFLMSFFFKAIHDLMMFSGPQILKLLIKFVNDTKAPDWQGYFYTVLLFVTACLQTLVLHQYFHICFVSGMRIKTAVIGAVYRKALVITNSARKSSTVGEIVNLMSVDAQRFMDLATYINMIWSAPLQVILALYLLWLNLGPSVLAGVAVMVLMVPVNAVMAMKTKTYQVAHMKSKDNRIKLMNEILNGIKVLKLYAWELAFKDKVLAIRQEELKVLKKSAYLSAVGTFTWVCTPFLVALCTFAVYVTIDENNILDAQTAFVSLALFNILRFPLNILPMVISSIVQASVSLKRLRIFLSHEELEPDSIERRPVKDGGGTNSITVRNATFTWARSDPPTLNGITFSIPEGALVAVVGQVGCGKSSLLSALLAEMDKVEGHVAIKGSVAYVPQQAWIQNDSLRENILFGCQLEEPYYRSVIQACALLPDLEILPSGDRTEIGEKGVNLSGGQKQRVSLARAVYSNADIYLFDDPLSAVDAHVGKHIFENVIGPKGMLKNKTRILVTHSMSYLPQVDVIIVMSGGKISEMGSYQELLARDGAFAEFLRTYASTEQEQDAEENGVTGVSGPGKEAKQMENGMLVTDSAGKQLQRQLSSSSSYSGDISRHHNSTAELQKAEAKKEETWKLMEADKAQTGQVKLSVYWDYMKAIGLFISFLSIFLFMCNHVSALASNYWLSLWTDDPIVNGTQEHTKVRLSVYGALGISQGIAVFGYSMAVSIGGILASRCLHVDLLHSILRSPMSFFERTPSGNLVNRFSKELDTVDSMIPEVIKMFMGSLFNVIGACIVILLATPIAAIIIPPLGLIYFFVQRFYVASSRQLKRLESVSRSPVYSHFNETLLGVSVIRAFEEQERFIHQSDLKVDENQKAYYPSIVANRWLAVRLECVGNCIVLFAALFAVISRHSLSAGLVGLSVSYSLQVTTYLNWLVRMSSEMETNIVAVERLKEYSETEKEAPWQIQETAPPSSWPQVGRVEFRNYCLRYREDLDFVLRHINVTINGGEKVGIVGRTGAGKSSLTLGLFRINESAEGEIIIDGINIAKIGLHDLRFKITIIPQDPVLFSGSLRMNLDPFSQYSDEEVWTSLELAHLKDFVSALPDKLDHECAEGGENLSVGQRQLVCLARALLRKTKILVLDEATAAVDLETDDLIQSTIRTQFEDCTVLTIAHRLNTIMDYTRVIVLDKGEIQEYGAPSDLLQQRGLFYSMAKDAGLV

Compound: CC(C)(O)[C@H]1CC[C@@](C)([C@H]2CC[C@]3(C)[C@@H]2[C@H](O)C[C@@H]2[C@@]4(C)CC[C@H](NC(=O)[C@@H]5CCCN5)C(C)(C)[C@@H]4CC[C@]23C)O1
- Activity [1]: Dose-Dependent Effect
- Activity [2]: 11.4%
- Activity (KBV): inactive
- Activity [3]: 42.21%
- Activity [4]: 0.58%
- Activity [5]: 8.58%
- Activity [6]: 27.12%
- inhibition at 1 h (P-gp (ABCB1) ATPase [7]): 40%
- Activity [8]: 60.47%
- Activity [9]: 22%
- Activity [10]: Not Active
- Activity [11]: Not Active
- viability at 5 µM [12]: 34%
- viability at 10 µM [13]: 123%
- Activity [14]: 20.53%
- viability at 10 µM [15]: 30%
- Activity [16]: Not Active
- inhibition (INH) [17]: Not Active
- Activity [18]: 25.93%
- Activity [19]: Non-Toxic
- Activity [20]: 13.38%
- inhibition at 1 h, 25 µM (P-gp (ABCB1) ATPase [21]): 87%
- Drug uptake [22]: Active
- Activity [23]: Not Active
- inhibition in vivo at 20 mg/kg [24]: 58.1%
- Drug uptake [25]: Active
- Activity [26]: 36.65%
- Activity [27]: Active
- fold change (FC) [28]: 67
- inhibition at 1 h (P-gp (ABCB1) ATPase [29]): 13%
- Activity [30]: Dose-Dependent Effect
